According to PubChem BioAssay AID330 (DTP/NCI, 2004):
Where “and” joins values, the source holds several entries; their conditions need not be identical. Equal entries are not always repeated. Toxic doses and inconclusive results are not listed. Rule for the calls: active = survival T/C of 150% or more; inactive = T/C below 125% in these data.

Tested on: P388 leukemia ip, CD2F1 mice, survival T/C
Experiment: NCI In Vivo Anticancer Drug Screen. Data for tumor model P388 Leukemia (intraperitoneal) in CD2F1 (CDF1) mice
Settings: endpoint: median survival time, higher = longer survival
Summary of the method: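 Mice carrying the transplanted tumor received test compound or vehicle. Survival was recorded in each group, and the value is the treated-group measurement divided by that of the vehicle-treated control group.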

[1] = dose: 50.0 mg/kg/injection, schedule: Q01DX009 (ip), vehicle: saline
[2] = dose: 100.0 mg/kg/injection, schedule: Q01DX009 (ip), vehicle: saline
[3] = dose: 200.0 mg/kg/injection, schedule: Q01DX009 (ip), vehicle: saline
[4] = dose: 50.0 mg/kg/injection, schedule: Q01DX005 (ip), vehicle: saline with Tween-80
[5] = dose: 100.0 mg/kg/injection, schedule: Q01DX005 (ip), vehicle: saline with Tween-80
[6] = dose: 200.0 mg/kg/injection, schedule: Q01DX005 (ip), vehicle: saline with Tween-80
[7] = dose: 100.0 mg/kg/injection, schedule: Q01DX001 (ip), vehicle: saline with Tween-80
[8] = dose: 200.0 mg/kg/injection, schedule: Q01DX001 (ip), vehicle: saline with Tween-80
[9] = dose: 400.0 mg/kg/injection, schedule: Q01DX001 (ip), vehicle: saline with Tween-80
[10] = dose: 25.0 mg/kg/injection, schedule: Q01DX009 (ip), vehicle: saline with Tween-80
[11] = dose: 60.0 mg/kg/injection, schedule: Q01DX005 (ip), vehicle: saline with Tween-80
[12] = dose: 120.0 mg/kg/injection, schedule: Q01DX005 (ip), vehicle: saline with Tween-80
[13] = dose: 240.0 mg/kg/injection, schedule: Q01DX005 (ip), vehicle: saline with Tween-80
[14] = dose: 50.0 mg/kg/injection, schedule: Q01DX009 (ip), vehicle: Klucel (hydroxypropylcellulose) (HPC)
[15] = dose: 100.0 mg/kg/injection, schedule: Q01DX009 (ip), vehicle: Klucel (hydroxypropylcellulose) (HPC)
[16] = dose: 200.0 mg/kg/injection, schedule: Q01DX009 (ip), vehicle: Klucel (hydroxypropylcellulose) (HPC)
[17] = dose: 60.0 mg/kg/injection, schedule: Q01DX005 (ip), vehicle: Klucel (hydroxypropylcellulose) (HPC)

Measured: T/C

CCCCC(C)(CN(C)C)C(=O)/C=C/c1ccccc1 (stereo not drawn)
inactive: [1] 108 % of control | [2] 115 % of control | [3] 86 % of control

O=C(NCCCBr)c1csc(-c2csc(CCNC(=O)C(F)(F)F)n2)n1
inactive: dose: 6.25 mg/kg/injection, schedule: Q01DX005 (ip), vehicle: saline with Tween-80 89 % of control | dose: 12.5 mg/kg/injection, schedule: Q01DX005 (ip), vehicle: saline with Tween-80 104 % of control | dose: 25.0 mg/kg/injection, schedule: Q01DX005 (ip), vehicle: saline with Tween-80 95 % of control | [4] 97 % of control | [5] 90 % of control | [6] 87 % of control

CCOc1nc(N)c(C(=O)c2sc(OCC)nc2N)s1
inactive: [7] 107 % of control | [8] 99 % of control | [9] 92 % of control

CC1CC2(c3ccccc3)C(=O)NC(=O)N=C2O1 (stereo not drawn)
inactive: dose: 100.0 mg/kg/injection, schedule: Q04DX002 (ip), vehicle: Klucel (hydroxypropylcellulose) (HPC) 105 % of control | dose: 200.0 mg/kg/injection, schedule: Q04DX002 (ip), vehicle: Klucel (hydroxypropylcellulose) (HPC) 109 % of control | dose: 400.0 mg/kg/injection, schedule: Q04DX002 (ip), vehicle: Klucel (hydroxypropylcellulose) (HPC) 105 % of control

COc1ccc2c(c1)CC[C@@H]1[C@@H]2CC[C@]2(C)[C@@H](OCCOS(=O)(=O)c3ccc(C)cc3)CC[C@@H]12
inactive: [7] 99 % of control | [8] 101 % of control | [9] 101 % of control

CC1(C)COC(=O)/C1=C\C#N
inactive: dose: 50.0 mg/kg/injection, schedule: Q04DX003 (ip), vehicle: Klucel (hydroxypropylcellulose) (HPC) 94 % of control and 98 % of control | dose: 100.0 mg/kg/injection, schedule: Q04DX003 (ip), vehicle: Klucel (hydroxypropylcellulose) (HPC) 105 % of control | dose: 100.0 mg/kg/injection, schedule: Q04DX003 (ip), vehicle: saline 101 % of control | dose: 200.0 mg/kg/injection, schedule: Q04DX003 (ip), vehicle: Klucel (hydroxypropylcellulose) (HPC) 100 % of control and 97 % of control | dose: 200.0 mg/kg/injection, schedule: Q04DX003 (ip), vehicle: saline 111 % of control | dose: 400.0 mg/kg/injection, schedule: Q04DX003 (ip), vehicle: Klucel (hydroxypropylcellulose) (HPC) 105 % of control | dose: 400.0 mg/kg/injection, schedule: Q04DX003 (ip), vehicle: saline 120 % of control

O=C1/C(=C\c2ccc([N+](=O)[O-])cc2)CS(=O)(=O)C/C1=C/c1ccc([N+](=O)[O-])cc1
inactive: [10] 95 % of control | dose: 50.0 mg/kg/injection, schedule: Q01DX009 (ip), vehicle: saline with Tween-80 94 % of control | dose: 100.0 mg/kg/injection, schedule: Q01DX009 (ip), vehicle: saline with Tween-80 105 % of control | dose: 200.0 mg/kg/injection, schedule: Q01DX009 (ip), vehicle: saline with Tween-80 116 % of control

CC/C(=N/N(C)C)C(=O)OC(C)(C)C
inactive: dose: 60.0 mg/kg/injection, schedule: Q01DX005 (ip), vehicle: saline 95 % of control | dose: 120.0 mg/kg/injection, schedule: Q01DX005 (ip), vehicle: saline 93 % of control | dose: 240.0 mg/kg/injection, schedule: Q01DX005 (ip), vehicle: saline 90 % of control

COc1cc(/C=C\Cc2cc3c(cc2OC(C)=O)OCO3)cc(OC)c1OC
inactive: [11] 91 % of control | [12] 91 % of control | [13] 90 % of control

OCn1nnc2ccccc21
inactive: dose: 25.0 mg/kg/injection, schedule: Q01DX009 (ip), vehicle: Klucel (hydroxypropylcellulose) (HPC) 116 % of control | [14] 102 % of control | [15] 112 % of control | [16] 106 % of control

Cc1cc(N/N=C/c2ccc(N(CCCl)CCCl)cc2)nc2ccc(Cl)cc12
inactive: [1] 97 % of control | [2] 100 % of control | [3] 100 % of control

N#CC(C(=O)C(=O)Nc1cccc(C(F)(F)F)c1)c1cccc(Cl)c1 (stereo not drawn)
inactive: [11] 105 % of control | [12] 112 % of control | [13] 103 % of control

N#Cc1cc2cccn2c2c1cnn2-c1ccccc1
inactive: [11] 105 % of control | [12] 98 % of control | [13] 89 % of control

CCCCCCCCCCCCOC(=O)c1ccc(N)cc1
inactive: [14] 98 % of control | [15] 101 % of control | [16] 95 % of control

NC(=O)c1[nH]c(N=Nc2ccc(Cl)cc2)nc1N
inactive: [14] 92 % of control | [15] 100 % of control | [16] 89 % of control

COC(=O)c1c2c(cc3nc4ccccc4nc13)OCO2
inactive: [11] 96 % of control | [12] 97 % of control | [13] 90 % of control

CCOc1ccc(NC(=O)C2=C(C)NC(C)=C(C(=O)Nc3ccc(OCC)cc3)C2c2cccc([N+](=O)[O-])c2)cc1
inactive: dose: 15.0 mg/kg/injection, schedule: Q01DX005 (ip), vehicle: Klucel (hydroxypropylcellulose) (HPC) 98 % of control | dose: 30.0 mg/kg/injection, schedule: Q01DX005 (ip), vehicle: Klucel (hydroxypropylcellulose) (HPC) 104 % of control | [17] 92 % of control and 97 % of control

S=C(SSC(=S)N1CCOCC1)N1CCOCC1
inactive: dose: 15.0 mg/kg/injection, schedule: Q01DX005 (ip), vehicle: saline with Tween-80 97 % of control | dose: 30.0 mg/kg/injection, schedule: Q01DX005 (ip), vehicle: saline with Tween-80 102 % of control | [11] 102 % of control and 107 % of control | [12] 104 % of control

COc1cccc2c(=O)cc(-c3ccccc3)sc12
inactive: [17] 98 % of control | dose: 120.0 mg/kg/injection, schedule: Q01DX005 (ip), vehicle: Klucel (hydroxypropylcellulose) (HPC) 97 % of control | dose: 240.0 mg/kg/injection, schedule: Q01DX005 (ip), vehicle: Klucel (hydroxypropylcellulose) (HPC) 90 % of control

COc1cc(/C=C2/CCC/C(=C\c3ccc(OCC(O)COc4ccc(C(C)(C)c5ccc(OCC6CO6)cc5)cc4)c(OC)c3)C2=O)ccc1OCC(O)COc1ccc(C(C)(C)c2ccc(OCC3CO3)cc2)cc1 (stereo not drawn)
inactive: [14] 96 % of control | [15] 97 % of control | [16] 95 % of control

O=C(CCCN1CCC2(CC1)C(=O)NCN2c1ccc(F)cc1)c1ccc(F)cc1
inactive: [4] 103 % of control | [5] 95 % of control | [6] 94 % of control

CCCCCCCCCCCCCCCC(=O)N1CCN(C)CC1
inactive: [10] 115 % of control

COc1ccc(CCNC(=O)C2CC3CCCCN3C2C)cc1OC (stereo not drawn)
inactive: [11] 99 % of control | [12] 95 % of control | [13] 94 % of control

CCOP(=O)(Nc1ccc(OC)cc1)OCC
inactive: [1] 103 % of control | [2] 108 % of control | [3] 111 % of control

O=CNNC(=O)c1cnccn1
inactive: dose: 89.0 mg/kg/injection, schedule: Q01DX009 (ip), vehicle: water 109 % of control | dose: 133.0 mg/kg/injection, schedule: Q01DX009 (ip), vehicle: water 100 % of control | dose: 200.0 mg/kg/injection, schedule: Q01DX009 (ip), vehicle: water 118 % of control
